The values below come from patent US8748407B2 (The Research Foundation for the State University of New York, priority 2010, dated 2014).

What all share (type): cell-based
For one series, the target named is T1, GluN1a/2A (Rattus norvegicus, UniProt P35439+Q00959).
T1 construct: expressed in transfected cells; host or cells: HEK-293S
The series is described as follows: Whole-cell current recording, NMDA receptor GluN1a/2A. The text has this: (§1) The original cDNAs in pBlueScript encoding rat GluA1, 2 and 3 AMPA receptors and GluK2 kainate receptor were kindly provided by Steve Heinemann. The GluA4 DNA plasmid was kindly provided by Peter Seeburg. The GluK1 plasmid was kindly provided by Geoffrey Swanson. The cDNAs of all three NMDA receptor subunits were gifts from John Woodward. All DNA plasmids were propagated using Escherichia coli host (DH5α) and purified using QIAGEN DNA purification kits.
(§2) All of the receptors were transiently expressed in HEK-293S cell. HEK-293S cells were maintained in Dulbecco's modified Eagle's medium (DMEM) supplemented with 10% fetal bovine serum and 1% penicillin in a 37° C., 5% CO2, humidified incubator. Receptors were transiently transfected by using calcium phosphate or lipofectamine 2000 (Invitrogen). The DNA plasmids encoding green fluorescent protein (GFP) and T-antigen (TAg) were cotransfected in HEK-293 S cells. […]
(§3) The procedure for whole-cell current recording to assay the inhibitory property of an RNA aptamer is known to those of skill in the art and has been previously described^7. […] The whole-cell current was recorded using an Axopatch-200B amplifier at a cutoff frequency of 2-20 kHz by a built-in, eight-pole Bessel filter and digitized at 5-50 kHz sampling frequency using a Digidata 1322A from Axon Instruments (Molecular Devices, Sunnyvale, Calif.). […]

The test system of a further series is GluK1. The series is described as follows: Whole-cell current recording, kainate receptor GluK1.
Excerpt: as §1, §2, §3

Another series deals with T2, GluN1a/2B (Rattus norvegicus, UniProt P35439+Q00960).
T2 construct: expressed in transfected cells; host or cells: HEK-293S
T2 sequence (Q00960 27-1482, other chains not shown): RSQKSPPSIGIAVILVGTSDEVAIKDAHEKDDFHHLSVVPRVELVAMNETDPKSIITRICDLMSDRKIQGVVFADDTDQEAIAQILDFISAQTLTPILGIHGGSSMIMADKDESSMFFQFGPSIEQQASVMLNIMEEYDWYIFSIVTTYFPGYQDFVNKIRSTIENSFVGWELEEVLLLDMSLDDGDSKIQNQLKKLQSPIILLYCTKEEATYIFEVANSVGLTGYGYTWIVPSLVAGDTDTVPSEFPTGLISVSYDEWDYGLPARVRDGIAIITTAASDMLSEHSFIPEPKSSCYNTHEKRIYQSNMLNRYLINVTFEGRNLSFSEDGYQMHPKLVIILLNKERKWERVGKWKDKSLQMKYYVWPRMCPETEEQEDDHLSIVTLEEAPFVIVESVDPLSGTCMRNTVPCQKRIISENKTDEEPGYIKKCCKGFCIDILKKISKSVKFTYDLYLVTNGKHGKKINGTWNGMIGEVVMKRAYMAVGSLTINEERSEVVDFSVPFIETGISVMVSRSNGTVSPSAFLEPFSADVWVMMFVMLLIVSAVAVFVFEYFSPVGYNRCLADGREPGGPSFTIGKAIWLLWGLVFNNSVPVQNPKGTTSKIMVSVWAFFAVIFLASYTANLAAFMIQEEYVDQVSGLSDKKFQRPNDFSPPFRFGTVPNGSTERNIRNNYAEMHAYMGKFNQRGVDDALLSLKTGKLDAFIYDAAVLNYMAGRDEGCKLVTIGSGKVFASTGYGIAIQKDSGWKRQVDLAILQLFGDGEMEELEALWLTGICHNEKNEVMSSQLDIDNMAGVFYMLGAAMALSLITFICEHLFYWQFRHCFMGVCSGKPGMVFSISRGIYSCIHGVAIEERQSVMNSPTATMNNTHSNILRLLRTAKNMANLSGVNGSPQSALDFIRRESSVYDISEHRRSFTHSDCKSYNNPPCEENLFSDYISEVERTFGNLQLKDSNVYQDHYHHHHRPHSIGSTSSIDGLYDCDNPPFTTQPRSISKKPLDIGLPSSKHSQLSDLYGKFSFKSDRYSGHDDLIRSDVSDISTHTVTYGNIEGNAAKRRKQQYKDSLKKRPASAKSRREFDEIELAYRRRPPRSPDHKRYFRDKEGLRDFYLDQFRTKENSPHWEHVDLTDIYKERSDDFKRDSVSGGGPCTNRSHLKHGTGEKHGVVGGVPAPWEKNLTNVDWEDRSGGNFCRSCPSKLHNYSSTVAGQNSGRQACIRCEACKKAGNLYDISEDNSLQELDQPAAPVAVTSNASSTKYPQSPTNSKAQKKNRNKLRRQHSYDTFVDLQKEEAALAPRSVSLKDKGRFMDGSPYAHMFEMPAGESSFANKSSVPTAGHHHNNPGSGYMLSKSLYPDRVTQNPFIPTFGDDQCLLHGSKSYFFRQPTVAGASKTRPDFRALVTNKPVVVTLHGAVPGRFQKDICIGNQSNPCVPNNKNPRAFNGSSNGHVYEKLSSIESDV
The series is described as follows: Whole-cell current recording, NMDA receptor GluN1a/2B.
Excerpt: as §1, §2, §3

A further series has as its target T3, GluK2 (Rattus norvegicus, UniProt P42260).
T3 construct: expressed in transfected cells; host or cells: HEK-293S
The series is described as follows: Whole-cell current recording, kainate receptor GluK2.
Excerpt: as §1, §2, §3

In a further series the target is T4, GluA1 (Rattus norvegicus, UniProt P19490).
T4 construct: expressed in transfected cells; host or cells: HEK-293S
T4 sequence (P19490 19-907): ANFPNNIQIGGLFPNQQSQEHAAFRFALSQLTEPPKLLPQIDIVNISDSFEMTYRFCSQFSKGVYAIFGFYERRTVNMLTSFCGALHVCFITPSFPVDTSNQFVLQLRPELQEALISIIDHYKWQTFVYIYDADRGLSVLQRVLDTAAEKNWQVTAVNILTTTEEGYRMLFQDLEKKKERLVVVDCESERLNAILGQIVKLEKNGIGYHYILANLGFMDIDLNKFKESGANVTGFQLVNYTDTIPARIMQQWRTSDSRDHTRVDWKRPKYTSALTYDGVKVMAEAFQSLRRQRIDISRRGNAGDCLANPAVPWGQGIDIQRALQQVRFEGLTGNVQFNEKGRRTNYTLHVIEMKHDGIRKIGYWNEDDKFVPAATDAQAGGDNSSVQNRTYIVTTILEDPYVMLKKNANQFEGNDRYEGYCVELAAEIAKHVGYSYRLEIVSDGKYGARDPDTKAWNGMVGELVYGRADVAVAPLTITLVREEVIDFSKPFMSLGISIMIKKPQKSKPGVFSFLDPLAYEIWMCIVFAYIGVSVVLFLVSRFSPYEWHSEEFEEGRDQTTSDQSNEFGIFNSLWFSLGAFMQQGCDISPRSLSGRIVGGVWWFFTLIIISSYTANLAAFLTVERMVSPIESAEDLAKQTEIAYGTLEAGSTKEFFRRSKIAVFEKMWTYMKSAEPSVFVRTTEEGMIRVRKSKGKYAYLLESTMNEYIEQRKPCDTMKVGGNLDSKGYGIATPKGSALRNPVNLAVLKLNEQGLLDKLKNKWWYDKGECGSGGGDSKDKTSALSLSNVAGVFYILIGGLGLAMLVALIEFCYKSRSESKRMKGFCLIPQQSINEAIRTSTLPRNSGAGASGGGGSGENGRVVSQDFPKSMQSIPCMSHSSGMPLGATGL
The series is described as follows: Whole-cell current recording, GluA1.
Excerpt: as §1, §2, §3

In a further series the target is T5, GluA4 (Rattus norvegicus, UniProt P19493).
T5 construct: expressed in transfected cells; host or cells: HEK-293S
T5 sequence (P19493 21-902): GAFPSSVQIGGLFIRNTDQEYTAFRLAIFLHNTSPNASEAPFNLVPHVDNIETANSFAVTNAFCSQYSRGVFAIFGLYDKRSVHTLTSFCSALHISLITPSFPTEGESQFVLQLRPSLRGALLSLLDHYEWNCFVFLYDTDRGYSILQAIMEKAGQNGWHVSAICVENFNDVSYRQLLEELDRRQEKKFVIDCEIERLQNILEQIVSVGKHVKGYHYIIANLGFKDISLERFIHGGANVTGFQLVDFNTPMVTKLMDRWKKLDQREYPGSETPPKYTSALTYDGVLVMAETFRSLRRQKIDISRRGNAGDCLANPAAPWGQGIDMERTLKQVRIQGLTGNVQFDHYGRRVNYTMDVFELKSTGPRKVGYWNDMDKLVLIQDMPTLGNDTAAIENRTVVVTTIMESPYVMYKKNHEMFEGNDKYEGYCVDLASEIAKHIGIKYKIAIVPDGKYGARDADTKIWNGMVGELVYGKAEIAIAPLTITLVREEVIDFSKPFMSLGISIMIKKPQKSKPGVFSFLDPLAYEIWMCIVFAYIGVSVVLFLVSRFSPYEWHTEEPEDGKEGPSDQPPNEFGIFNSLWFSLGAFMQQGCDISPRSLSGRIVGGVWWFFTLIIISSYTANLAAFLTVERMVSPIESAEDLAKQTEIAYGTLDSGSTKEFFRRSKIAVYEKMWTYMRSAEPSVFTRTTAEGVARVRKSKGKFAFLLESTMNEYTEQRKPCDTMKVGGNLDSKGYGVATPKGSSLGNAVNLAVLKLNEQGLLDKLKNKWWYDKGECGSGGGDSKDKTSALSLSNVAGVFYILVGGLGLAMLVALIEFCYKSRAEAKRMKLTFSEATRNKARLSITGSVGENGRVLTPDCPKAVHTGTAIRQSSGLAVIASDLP
Briefly: Whole-cell current recording, GluA4.
Excerpt: as §1
All of the receptors were transiently expressed in HEK-293S cell. HEK-293S cells were maintained in Dulbecco's modified Eagle's medium (DMEM) supplemented with 10% fetal bovine serum and 1% penicillin in a 37° C., 5% CO2, humidified incubator. Receptors were transiently transfected by using calcium phosphate or lipofectamine 2000 (Invitrogen). The DNA plasmids encoding green fluorescent protein (GFP) and T-antigen (TAg) were cotransfected in HEK-293 S cells. GFP was used as a transfection marker for cell recording, and TAg was cotransfected to potentiate the receptor expression at the single-cell level^6. Transfected cells were allowed to grow for 48 hour before they were used for recording.
The procedure for whole-cell current recording to assay the inhibitory property of an RNA aptamer is known to those of skill in the art and has been previously described^7. […] The extracellular buffer composition is described above (see “Receptor Preparation”). For recording of the NMDA channels, the intracellualr solution contained (in mM) 140 CsCl, 1 MgCl2, 0.1 EGTA, and 10 HEPES (pH 7.2 adjusted by […]), while the extracellular solution contained (in mM) 135 NaCl, 5.4 KCl, 1.8 CaCl2, 10 glucose and 5 HEPES (pH 7.2 adjusted by NaOH). In the extracellular buffer, 2 μM of glycine was added (glycine was the co-agonist of NMDA receptor)^2. All reagents including aptamer were dissolved in the corresponding extracellular buffer and used. […] The whole-cell current was recorded using an Axopatch-200B amplifier at a cutoff frequency of 2-20 kHz by a built-in, eight-pole Bessel filter and digitized at 5-50 kHz sampling frequency using a Digidata 1322A from Axon Instruments (Molecular Devices, Sunnyvale, Calif.). The pClamp 8 software (Molecular Devices) was used for data acquisition. All whole-cell recordings were at −60 mV and 22° C.

A further series concerns the target T6, GluA2Qflip (Rattus norvegicus, UniProt P19491).
T6 construct: expressed in transfected cells; host or cells: HEK-293S
The series is described as follows: Laser-pulse photolysis of caged glutamate, channel-opening kinetics. The text has this:
The use of the laser-pulse photolysis technique to measure the channel-opening kinetics has been described^7. […] In the laser-pulse photolysis measurement of channel opening, a single laser pulse at 355 nm with a pulse length of 8 ns was generated from a pulsed Q-switched Nd:YAG laser (Continuum, Santa Clara, Calif.). The pulse energy varied in the range of 200-800 μJ, measured at the end of an optical fiber (300 μm core diameter) into which the laser was coupled. […] The current amplitudes obtained from this calibration were compared with the amplitude from the laser measurement with reference to the dose-response relationship. These measurements also allowed us to monitor any damage to the receptors and/or the cell for successive laser experiments with the same cell^7.
To deliver AG56 to a HEK-293 cell, a “Ψ”-shaped flow device was used. […] In all experiments reported in this study, a 6-second preincubation flow protocol was used for full aptamer preincubation. […] The corrected current amplitude was used for data analysis.
The use of this technique allows the investigation of the effect of AG56 on the channel-opening kinetic mechanism of the GluA2Qflip receptors. Before describing how the mechanism of inhibition is elucidated, the kinetic characterization of channel-opening rate process is presented.
A represents the active form of the receptor, L, the ligand, ALn the closed-channel forms, and ALn the open-channel form, K1 the intrinsic dissociation constant of activating ligand and Φ the channel opening equilibrium constant (Φ^−1=kcl/kop). Based on this mechanism and the assumption that the ligand-binding rate was fast as compared to the channel opening, the observed rate constant of channel opening or kobs can be formulated as in equ. 2.
In equ. 2, kcl is the channel-closing rate constant or the lifetime of the channel, τ (τ=1/kcl), kop is the channel-opening rate constant, and n the number of the ligand molecules to bind to the receptor complex to open the channel (i.e., n=1-4). Imax is the maximum current amplitude, and It is the current amplitude at time t.
The mechanism of inhibition was characterized by studying the effect of an inhibitor such as AG56 on the channel-opening rate process^13,14. In general there are three ways in which an ion channel receptor can be inhibited. For instance, an inhibitor binds only to the open-channel state or conformation and then inhibits it (Mechanism 1, uncompetitive mechanism of inhibition or open-channel blockade). Alternatively, an inhibitor binds to both the closed- and open-channel states through a regulatory site (Mechanism 2, noncompetitive mechanism). The observed rate constant, kobs in the presence and absence of an inhibitor can be measured using equ. 3. […] 4 for mechanism 1, and equ. 5 for mechanism 2.
In deriving these equations, one binding site for inhibitor per receptor molecule is assumed. […] 4 or 5 to the overall rate, kobs, is negligible. Under this condition, the effect of the inhibitor on the kcl can be measured^13. Specifically, for both Mechanisms 1 and 2, the effects of the inhibitor on kcl are the same, and can be obtained by equ. 6, which can be derived from either equ. 4 or 5. From equ. 6, the equilibrium dissociation constant of the inhibitor from the open-channel state, KI, can be determined.
For Mechanism 2 or a noncompetitive mechanism of inhibition, the inhibitor will affect kop additionally (equ. 8), if KI<I, I being the molar concentration used to measure the KI value. Consequently the dissociation constant of the inhibitor for the closed-channel conformation can be further determined for Mechanism 2. It should be emphasized that the presence of an inhibitory effect of a noncompetitive inhibitor is due to the fact that the inhibitor must first bind to the closed-channel conformation, as illustrated in Mechanism 2, shown above. […]

Setting [1] is: 100 μM photolytically released glutamate.

T6 sequence (P19491 22-883 isoform P19491-2): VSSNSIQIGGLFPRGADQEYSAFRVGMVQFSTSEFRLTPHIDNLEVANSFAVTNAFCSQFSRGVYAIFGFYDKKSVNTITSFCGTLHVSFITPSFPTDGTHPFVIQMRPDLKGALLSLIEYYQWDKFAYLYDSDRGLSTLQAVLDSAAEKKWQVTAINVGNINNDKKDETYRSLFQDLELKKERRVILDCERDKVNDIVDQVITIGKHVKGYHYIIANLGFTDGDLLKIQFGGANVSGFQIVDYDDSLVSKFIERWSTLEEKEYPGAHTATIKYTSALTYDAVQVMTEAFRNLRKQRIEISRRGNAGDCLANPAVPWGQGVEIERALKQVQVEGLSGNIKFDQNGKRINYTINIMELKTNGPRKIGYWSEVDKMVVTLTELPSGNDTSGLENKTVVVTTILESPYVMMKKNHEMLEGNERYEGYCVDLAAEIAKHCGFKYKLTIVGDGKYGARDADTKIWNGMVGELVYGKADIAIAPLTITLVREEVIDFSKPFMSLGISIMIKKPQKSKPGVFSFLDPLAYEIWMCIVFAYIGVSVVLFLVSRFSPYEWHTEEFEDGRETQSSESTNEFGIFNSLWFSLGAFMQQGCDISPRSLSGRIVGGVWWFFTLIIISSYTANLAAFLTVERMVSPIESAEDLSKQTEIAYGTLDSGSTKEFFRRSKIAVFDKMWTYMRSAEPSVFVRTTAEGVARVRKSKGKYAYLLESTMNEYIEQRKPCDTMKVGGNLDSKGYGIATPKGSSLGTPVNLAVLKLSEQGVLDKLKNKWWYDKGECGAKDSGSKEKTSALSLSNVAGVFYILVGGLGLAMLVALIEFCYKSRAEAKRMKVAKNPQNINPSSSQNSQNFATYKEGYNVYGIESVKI
T3 sequence (P42260 32-908): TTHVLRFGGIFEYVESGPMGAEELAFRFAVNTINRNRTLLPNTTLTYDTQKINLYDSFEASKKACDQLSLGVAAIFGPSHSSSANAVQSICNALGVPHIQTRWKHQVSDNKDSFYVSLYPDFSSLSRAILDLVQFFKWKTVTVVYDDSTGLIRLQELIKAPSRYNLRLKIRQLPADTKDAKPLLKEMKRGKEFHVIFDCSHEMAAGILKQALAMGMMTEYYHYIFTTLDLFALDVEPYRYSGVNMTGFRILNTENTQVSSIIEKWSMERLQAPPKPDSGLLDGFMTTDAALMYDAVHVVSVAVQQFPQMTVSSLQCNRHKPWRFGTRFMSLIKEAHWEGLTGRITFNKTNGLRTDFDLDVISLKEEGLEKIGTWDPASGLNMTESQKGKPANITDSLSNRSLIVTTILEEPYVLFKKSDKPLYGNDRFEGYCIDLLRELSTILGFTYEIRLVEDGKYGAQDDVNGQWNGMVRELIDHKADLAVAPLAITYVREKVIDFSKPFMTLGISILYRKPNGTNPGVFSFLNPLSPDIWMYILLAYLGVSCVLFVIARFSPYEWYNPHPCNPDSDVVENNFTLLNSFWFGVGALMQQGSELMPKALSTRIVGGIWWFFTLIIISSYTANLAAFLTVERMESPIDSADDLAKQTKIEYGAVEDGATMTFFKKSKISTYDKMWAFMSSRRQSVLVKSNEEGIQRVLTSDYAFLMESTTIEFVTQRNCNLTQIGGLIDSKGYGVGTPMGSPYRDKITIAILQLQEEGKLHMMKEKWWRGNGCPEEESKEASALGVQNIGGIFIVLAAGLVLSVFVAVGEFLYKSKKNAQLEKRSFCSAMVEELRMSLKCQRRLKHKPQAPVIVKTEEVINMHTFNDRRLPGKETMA

As to “AG56: 56-nucleotide truncated version of AG1407, RNA aptamer (GGGAGAUUGUGAAGCGUAGGCUCGAGUUUGUCCCGCGAGCCAAAGAUUCCAGACCC; RNA, backbone not given here)”, the “effect on NMDA receptor channel” value with GluN1a/2A and in the series with GluN1a/2B was “did not affect” each time. For the same substance, the “effect on kainate receptor channel” value in the series on GluK1 and with GluK2 was “did not affect” each time. For the same substance, the “inhibition of the closed-channel conformation” value in the series with GluA1 and with GluA4 (GluA4) was “no inhibitory effect” each time. In addition, the “inhibition of the open-channel conformation” value in the series with GluA1 is on record as “similarly inhibited the open-channel conformation”; with GluA4 (GluA4), “weak”. Besides, the “A/A(I)” value in the series with GluA4 (0.5 μM AG56, 3 mM glutamate, open-channel GluA4) is “not significantly larger than 1.0”. Besides, the “A/A(I) ratio” value with GluA4 (1 μM AG56, 3 mM glutamate, open-channel GluA4) was 1.2. In addition, in the series with GluA2Qflip (setting [1]), the “effect on channel-closing rate (kcl)” value is “inhibited the rate of channel closing”. Besides, the “effect on current amplitude” value is listed as “did not affect the current amplitude” with GluA2Qflip (setting [1]) and “reduced the current amplitude” in the series with GluA2Qflip (higher glutamate concentration). Further, the “kobs value, which reflected kcl” value in the series with GluA2Qflip (100 μM photolytically released glutamate, +0.75 μM AG56 (control 2,200)) is recorded as 1,600 s^−1. In addition, the “kobs value, which reflected kop” value with GluA2Qflip (340 μM photolytically released glutamate, 0.75 μM AG56 (absence 5,128)) is on record as 4,405 s^−1. In the series with GluA2Qflip (increased glutamate concentration), the “effect on channel-opening rate constant (kop)” value is recorded as “did not inhibit kop”.
